# Target: T1, Alpha-2C adrenergic receptor (Homo sapiens, UniProt P18825)
# T1 sequence (P18825 whole entry): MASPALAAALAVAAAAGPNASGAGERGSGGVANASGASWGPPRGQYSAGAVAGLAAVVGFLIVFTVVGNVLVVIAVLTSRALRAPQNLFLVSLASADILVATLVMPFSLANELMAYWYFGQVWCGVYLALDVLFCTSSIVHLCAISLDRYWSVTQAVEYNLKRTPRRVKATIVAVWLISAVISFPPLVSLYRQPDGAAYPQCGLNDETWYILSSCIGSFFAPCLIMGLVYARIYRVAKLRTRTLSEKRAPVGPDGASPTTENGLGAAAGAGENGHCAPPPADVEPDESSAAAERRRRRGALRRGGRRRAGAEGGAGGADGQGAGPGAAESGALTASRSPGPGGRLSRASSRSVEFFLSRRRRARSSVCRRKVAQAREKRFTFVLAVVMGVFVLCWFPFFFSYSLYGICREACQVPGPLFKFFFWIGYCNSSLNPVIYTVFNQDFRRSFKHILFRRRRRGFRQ
# Assay: DRUGMATRIX: Adrenergic Alpha-2C radioligand binding (ligand: [3H] MK-912)
# Format: cell membranes, Sf9, Membrane
# Details: sf9
row,SMILES,IC50
1,Cc1ncc([N+](=O)[O-])n1CC(C)O (stereo unspecified) [SECNIDAZOLE],Not Active
2,CC1=C(/C=C/C(C)=C/C=C/C(C)=C\C(=O)O)C(C)(C)CCC1 [ISOTRETINOIN],Not Active
3,CC(=O)S[C@@H]1CC2=CC(=O)CC[C@]2(C)[C@H]2CC[C@@]3(C)[C@@H](CC[C@@]34CCC(=O)O4)[C@H]12 [SPIRONOLACTONE],Not Active

# Target: T2, B2 bradykinin receptor (Homo sapiens, UniProt P30411); further: in other assays of this panel Not Active means under 50% inhibition at 10 µM
# T2 sequence (P30411 whole entry): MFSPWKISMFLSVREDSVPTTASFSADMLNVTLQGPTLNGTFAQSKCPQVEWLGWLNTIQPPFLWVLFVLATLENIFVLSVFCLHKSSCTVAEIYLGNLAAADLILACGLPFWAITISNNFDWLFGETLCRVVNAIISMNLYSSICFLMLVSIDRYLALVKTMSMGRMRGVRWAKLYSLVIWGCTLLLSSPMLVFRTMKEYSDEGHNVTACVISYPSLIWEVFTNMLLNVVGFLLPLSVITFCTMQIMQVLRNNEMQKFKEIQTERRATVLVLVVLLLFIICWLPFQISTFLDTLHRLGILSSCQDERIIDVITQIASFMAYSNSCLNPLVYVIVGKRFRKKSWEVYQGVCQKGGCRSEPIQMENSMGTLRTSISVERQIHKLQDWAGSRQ
# Format: cell membranes, Membrane
# Details: chem-1
row,SMILES,IC50
1,Cc1ncc([N+](=O)[O-])n1CC(C)O (stereo unspecified) [SECNIDAZOLE],Not Active
2,CC1=C(/C=C/C(C)=C/C=C/C(C)=C\C(=O)O)C(C)(C)CCC1 [ISOTRETINOIN],Not Active
3,CC(=O)S[C@@H]1CC2=CC(=O)CC[C@]2(C)[C@H]2CC[C@@]3(C)[C@@H](CC[C@@]34CCC(=O)O4)[C@H]12 [SPIRONOLACTONE],Not Active

# Target: T3, Substance-K receptor (Homo sapiens, UniProt P21452); further: in other assays of this panel Not Active means under 50% inhibition at 10 µM
# T3 sequence (P21452 whole entry): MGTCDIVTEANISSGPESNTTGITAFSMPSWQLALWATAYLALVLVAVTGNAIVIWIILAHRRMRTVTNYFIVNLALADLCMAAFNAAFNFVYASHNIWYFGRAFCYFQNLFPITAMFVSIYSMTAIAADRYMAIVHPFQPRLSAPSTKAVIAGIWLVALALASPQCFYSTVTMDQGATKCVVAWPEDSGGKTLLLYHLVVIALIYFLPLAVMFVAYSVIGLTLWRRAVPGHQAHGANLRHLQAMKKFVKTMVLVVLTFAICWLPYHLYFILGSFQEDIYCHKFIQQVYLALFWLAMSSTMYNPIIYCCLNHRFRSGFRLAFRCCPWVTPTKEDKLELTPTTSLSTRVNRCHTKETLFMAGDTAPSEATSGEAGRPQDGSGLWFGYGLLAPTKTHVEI
# Format: cell membranes, CHO, Membrane
# Details: cho
row,SMILES,IC50
1,Cc1ncc([N+](=O)[O-])n1CC(C)O (stereo unspecified) [SECNIDAZOLE],Not Active
2,CC1=C(/C=C/C(C)=C/C=C/C(C)=C\C(=O)O)C(C)(C)CCC1 [ISOTRETINOIN],Not Active
3,CC(=O)S[C@@H]1CC2=CC(=O)CC[C@]2(C)[C@H]2CC[C@@]3(C)[C@@H](CC[C@@]34CCC(=O)O4)[C@H]12 [SPIRONOLACTONE],Not Active

# Target: Cannabinoid receptor 1 (Homo sapiens, UniProt P21554); further: in other assays of this panel Not Active means under 50% inhibition at 10 µM
# Sequence (P21554 whole entry): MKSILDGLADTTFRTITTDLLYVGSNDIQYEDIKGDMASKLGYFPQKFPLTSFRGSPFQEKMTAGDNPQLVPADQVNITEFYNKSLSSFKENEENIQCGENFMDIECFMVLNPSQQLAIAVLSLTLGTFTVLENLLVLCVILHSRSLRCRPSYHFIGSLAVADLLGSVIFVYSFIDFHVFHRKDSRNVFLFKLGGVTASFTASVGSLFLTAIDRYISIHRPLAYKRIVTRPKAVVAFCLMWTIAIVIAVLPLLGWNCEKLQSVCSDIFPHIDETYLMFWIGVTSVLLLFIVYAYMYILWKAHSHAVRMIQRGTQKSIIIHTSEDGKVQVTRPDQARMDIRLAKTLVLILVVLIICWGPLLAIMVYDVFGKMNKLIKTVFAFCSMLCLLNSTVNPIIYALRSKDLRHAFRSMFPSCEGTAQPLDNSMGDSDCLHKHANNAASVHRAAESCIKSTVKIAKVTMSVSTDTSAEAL
# Format: cell membranes, Membrane
# Details: chem-1
row,SMILES,IC50
1,Cc1ncc([N+](=O)[O-])n1CC(C)O (stereo unspecified) [SECNIDAZOLE],Not Active
2,CC1=C(/C=C/C(C)=C/C=C/C(C)=C\C(=O)O)C(C)(C)CCC1 [ISOTRETINOIN],Not Active
3,CC(=O)S[C@@H]1CC2=CC(=O)CC[C@]2(C)[C@H]2CC[C@@]3(C)[C@@H](CC[C@@]34CCC(=O)O4)[C@H]12 [SPIRONOLACTONE],Not Active

# Target: T4, C-X-C chemokine receptor type 1 (Homo sapiens, UniProt P25024); further: in other assays of this panel Not Active means under 50% inhibition at 10 µM
# T4 sequence (P25024 whole entry): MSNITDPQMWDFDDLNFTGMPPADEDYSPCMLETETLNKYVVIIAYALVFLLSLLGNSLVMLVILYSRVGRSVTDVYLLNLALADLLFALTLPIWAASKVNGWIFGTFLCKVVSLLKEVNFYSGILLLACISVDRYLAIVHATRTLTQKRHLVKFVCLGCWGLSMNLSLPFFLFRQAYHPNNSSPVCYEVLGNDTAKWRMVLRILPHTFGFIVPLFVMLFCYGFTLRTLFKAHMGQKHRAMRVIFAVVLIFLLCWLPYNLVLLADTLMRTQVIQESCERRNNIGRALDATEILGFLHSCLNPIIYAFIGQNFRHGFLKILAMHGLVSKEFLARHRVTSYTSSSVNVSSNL
# Details: not given
row,SMILES,IC50
1,Cc1ncc([N+](=O)[O-])n1CC(C)O (stereo unspecified) [SECNIDAZOLE],Not Active
2,CC1=C(/C=C/C(C)=C/C=C/C(C)=C\C(=O)O)C(C)(C)CCC1 [ISOTRETINOIN],Not Active
3,CC(=O)S[C@@H]1CC2=CC(=O)CC[C@]2(C)[C@H]2CC[C@@]3(C)[C@@H](CC[C@@]34CCC(=O)O4)[C@H]12 [SPIRONOLACTONE],Not Active

# Test system: not listed separately
# Assay: DRUGMATRIX: GABAA, Chloride Channel, TBOB radioligand binding (ligand: [3H] TBOB)
# Format: cell membranes, Rattus norvegicus, Wistar, Cerebral cortex, Membrane
# Details: Not Active = under 50% inhibition at 10 µM
SMILES,IC50,Ki
Cc1ncc([N+](=O)[O-])n1CC(C)O (stereo unspecified) [SECNIDAZOLE],Not Active,Not Active
CC1=C(/C=C/C(C)=C/C=C/C(C)=C\C(=O)O)C(C)(C)CCC1 [ISOTRETINOIN],Not Active,Not Active
CC(=O)S[C@@H]1CC2=CC(=O)CC[C@]2(C)[C@H]2CC[C@@]3(C)[C@@H](CC[C@@]34CCC(=O)O4)[C@H]12 [SPIRONOLACTONE],Not Active,Not Active

# Target: Nitric oxide synthase 1 (Rattus norvegicus, UniProt P29476); further: in other assays of this panel Not Active means under 50% inhibition at 10 µM
# Sequence (P29476 whole entry): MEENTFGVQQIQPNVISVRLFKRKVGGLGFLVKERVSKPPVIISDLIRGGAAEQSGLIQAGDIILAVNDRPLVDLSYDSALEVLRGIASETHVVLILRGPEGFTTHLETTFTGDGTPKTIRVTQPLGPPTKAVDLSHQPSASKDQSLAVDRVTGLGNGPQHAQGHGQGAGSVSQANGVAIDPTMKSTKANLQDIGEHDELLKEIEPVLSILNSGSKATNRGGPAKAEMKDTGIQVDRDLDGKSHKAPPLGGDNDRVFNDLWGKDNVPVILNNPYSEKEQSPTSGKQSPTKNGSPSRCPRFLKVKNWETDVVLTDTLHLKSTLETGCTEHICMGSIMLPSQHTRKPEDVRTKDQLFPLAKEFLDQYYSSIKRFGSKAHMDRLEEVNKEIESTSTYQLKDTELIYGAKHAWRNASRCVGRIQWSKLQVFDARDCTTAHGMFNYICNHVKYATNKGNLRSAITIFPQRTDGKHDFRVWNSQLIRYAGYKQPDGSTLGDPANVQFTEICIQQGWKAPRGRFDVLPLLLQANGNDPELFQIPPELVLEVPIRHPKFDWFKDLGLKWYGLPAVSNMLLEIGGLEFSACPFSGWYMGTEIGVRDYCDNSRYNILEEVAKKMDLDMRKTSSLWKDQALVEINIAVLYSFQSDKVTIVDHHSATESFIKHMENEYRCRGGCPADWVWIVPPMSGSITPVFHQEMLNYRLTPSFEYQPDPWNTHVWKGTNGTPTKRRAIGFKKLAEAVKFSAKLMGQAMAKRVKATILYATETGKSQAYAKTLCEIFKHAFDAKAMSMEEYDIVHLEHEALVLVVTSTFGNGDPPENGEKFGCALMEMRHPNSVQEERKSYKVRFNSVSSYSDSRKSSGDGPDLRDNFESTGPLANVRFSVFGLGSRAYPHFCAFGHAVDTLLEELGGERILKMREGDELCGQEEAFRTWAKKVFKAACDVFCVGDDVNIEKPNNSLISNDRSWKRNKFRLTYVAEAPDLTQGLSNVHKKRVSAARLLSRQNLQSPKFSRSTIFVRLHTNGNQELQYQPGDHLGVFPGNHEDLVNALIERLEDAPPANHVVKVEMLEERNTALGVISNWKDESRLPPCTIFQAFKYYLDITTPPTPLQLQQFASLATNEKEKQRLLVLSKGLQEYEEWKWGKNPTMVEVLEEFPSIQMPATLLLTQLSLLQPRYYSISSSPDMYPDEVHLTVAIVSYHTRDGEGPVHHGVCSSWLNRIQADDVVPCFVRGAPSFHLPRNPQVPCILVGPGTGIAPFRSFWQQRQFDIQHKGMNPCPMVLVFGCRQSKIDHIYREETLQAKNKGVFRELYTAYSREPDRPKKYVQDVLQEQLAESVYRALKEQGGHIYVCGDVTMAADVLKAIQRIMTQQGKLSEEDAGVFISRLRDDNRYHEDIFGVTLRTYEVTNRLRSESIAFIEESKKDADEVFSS
# Format: tissue-based, Cerebellum
# Details: not given
row,SMILES,IC50
1,Cc1ncc([N+](=O)[O-])n1CC(C)O (stereo unspecified) [SECNIDAZOLE],Not Active
2,CC1=C(/C=C/C(C)=C/C=C/C(C)=C\C(=O)O)C(C)(C)CCC1 [ISOTRETINOIN],Not Active
3,CC(=O)S[C@@H]1CC2=CC(=O)CC[C@]2(C)[C@H]2CC[C@@]3(C)[C@@H](CC[C@@]34CCC(=O)O4)[C@H]12 [SPIRONOLACTONE],Not Active

# Target: cGMP-specific 3',5'-cyclic phosphodiesterase (Homo sapiens, UniProt O76074)
# Assay: DRUGMATRIX: Phosphodiesterase PDE5 enzyme inhibition (substrate: [3H]cGMP + cGMP)
# Format: tissue-based, Platelet
# Details: platelet; Not Active = under 50% inhibition at 10 µM
row,SMILES,IC50
1,Cc1ncc([N+](=O)[O-])n1CC(C)O (stereo unspecified) [SECNIDAZOLE],Not Active
2,CC1=C(/C=C/C(C)=C/C=C/C(C)=C\C(=O)O)C(C)(C)CCC1 [ISOTRETINOIN],Not Active
3,CC(=O)S[C@@H]1CC2=CC(=O)CC[C@]2(C)[C@H]2CC[C@@]3(C)[C@@H](CC[C@@]34CCC(=O)O4)[C@H]12 [SPIRONOLACTONE],Not Active

# Test system: not listed separately
# Assay: DRUGMATRIX: Platelet-Derived Growth Factor (PDGF) radioligand binding (ligand: [125I] PDGF)
# Format: cell-based
# Details: nih3t3; Not Active = under 50% inhibition at 10 µM
SMILES,IC50,Ki
Cc1ncc([N+](=O)[O-])n1CC(C)O (stereo unspecified) [SECNIDAZOLE],Not Active,Not Active
CC1=C(/C=C/C(C)=C/C=C/C(C)=C\C(=O)O)C(C)(C)CCC1 [ISOTRETINOIN],Not Active,Not Active
CC(=O)S[C@@H]1CC2=CC(=O)CC[C@]2(C)[C@H]2CC[C@@]3(C)[C@@H](CC[C@@]34CCC(=O)O4)[C@H]12 [SPIRONOLACTONE],Not Active,Not Active

# Test system: not listed separately
# Assay: DRUGMATRIX: Potassium Channel [KATP] radioligand binding (ligand: [3H] Glyburide)
# Format: cell membranes, Membrane
# Details: hit-t15; Not Active = under 50% inhibition at 10 µM
SMILES,IC50,Ki
Cc1ncc([N+](=O)[O-])n1CC(C)O (stereo unspecified) [SECNIDAZOLE],Not Active,Not Active
CC1=C(/C=C/C(C)=C/C=C/C(C)=C\C(=O)O)C(C)(C)CCC1 [ISOTRETINOIN],Not Active,Not Active
CC(=O)S[C@@H]1CC2=CC(=O)CC[C@]2(C)[C@H]2CC[C@@]3(C)[C@@H](CC[C@@]34CCC(=O)O4)[C@H]12 [SPIRONOLACTONE],Not Active,Not Active

# Target: Mitogen-activated protein kinase 3 (Homo sapiens, UniProt P27361)
# Sequence (P27361 whole entry): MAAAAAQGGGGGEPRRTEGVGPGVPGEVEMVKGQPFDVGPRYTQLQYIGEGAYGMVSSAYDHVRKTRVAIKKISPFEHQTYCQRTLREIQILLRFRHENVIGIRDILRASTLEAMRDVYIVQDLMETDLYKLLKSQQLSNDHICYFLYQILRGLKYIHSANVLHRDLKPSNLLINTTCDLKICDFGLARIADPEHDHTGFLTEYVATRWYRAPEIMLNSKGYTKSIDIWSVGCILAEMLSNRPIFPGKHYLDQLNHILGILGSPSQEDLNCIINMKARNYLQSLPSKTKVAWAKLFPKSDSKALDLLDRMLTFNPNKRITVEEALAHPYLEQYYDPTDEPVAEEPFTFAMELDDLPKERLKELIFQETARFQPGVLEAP
# Assay: DRUGMATRIX: Protein Serine/Threonine Kinase, ERK1 enzyme inhibition (substrate: Myelin Basic Protein)
# Design: species or system Escherichia coli
# Details: Not Active = under 50% inhibition at 10 µM
row,SMILES,IC50
1,Cc1ncc([N+](=O)[O-])n1CC(C)O (stereo unspecified) [SECNIDAZOLE],Not Active
2,CC1=C(/C=C/C(C)=C/C=C/C(C)=C\C(=O)O)C(C)(C)CCC1 [ISOTRETINOIN],Not Active
3,CC(=O)S[C@@H]1CC2=CC(=O)CC[C@]2(C)[C@H]2CC[C@@]3(C)[C@@H](CC[C@@]34CCC(=O)O4)[C@H]12 [SPIRONOLACTONE],Not Active

# Target: Protein phosphatase 3 catalytic subunit alpha (Homo sapiens, UniProt Q08209)
# Design: species or system Escherichia coli
# Details: not given
row,SMILES,IC50
1,Cc1ncc([N+](=O)[O-])n1CC(C)O (stereo unspecified) [SECNIDAZOLE],Not Active
2,CC1=C(/C=C/C(C)=C/C=C/C(C)=C\C(=O)O)C(C)(C)CCC1 [ISOTRETINOIN],Not Active
3,CC(=O)S[C@@H]1CC2=CC(=O)CC[C@]2(C)[C@H]2CC[C@@]3(C)[C@@H](CC[C@@]34CCC(=O)O4)[C@H]12 [SPIRONOLACTONE],Not Active

# Target: Acetylcholinesterase (Homo sapiens, UniProt P22303)
# Sequence (P22303 whole entry): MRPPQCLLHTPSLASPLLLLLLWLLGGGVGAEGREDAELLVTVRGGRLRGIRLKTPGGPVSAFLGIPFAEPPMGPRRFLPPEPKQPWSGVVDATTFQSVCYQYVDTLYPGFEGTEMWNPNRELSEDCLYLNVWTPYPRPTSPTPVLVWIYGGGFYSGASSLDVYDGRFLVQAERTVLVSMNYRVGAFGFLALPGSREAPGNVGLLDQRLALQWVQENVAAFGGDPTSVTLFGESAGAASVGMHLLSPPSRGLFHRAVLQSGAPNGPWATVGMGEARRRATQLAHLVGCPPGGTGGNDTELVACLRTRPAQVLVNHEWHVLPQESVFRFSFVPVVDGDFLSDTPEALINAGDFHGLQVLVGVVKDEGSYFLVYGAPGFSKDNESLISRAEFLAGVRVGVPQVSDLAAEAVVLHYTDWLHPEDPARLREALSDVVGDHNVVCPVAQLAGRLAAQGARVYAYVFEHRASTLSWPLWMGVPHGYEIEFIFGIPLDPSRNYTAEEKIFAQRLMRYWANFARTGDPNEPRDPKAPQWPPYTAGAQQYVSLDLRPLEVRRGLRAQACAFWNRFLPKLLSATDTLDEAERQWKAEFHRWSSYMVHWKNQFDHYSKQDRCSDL
# Assay: DRUGMATRIX: Acetylcholinesterase enzyme inhibition (substrate: acetylthiocholine)
# Format: cell-based, HEK293
# Details: hek293; Not Active = under 50% inhibition at 10 µM
row,SMILES,IC50
1,Cc1ncc([N+](=O)[O-])n1CC(C)O (stereo unspecified) [SECNIDAZOLE],Not Active
2,CC1=C(/C=C/C(C)=C/C=C/C(C)=C\C(=O)O)C(C)(C)CCC1 [ISOTRETINOIN],Not Active
3,CC(=O)S[C@@H]1CC2=CC(=O)CC[C@]2(C)[C@H]2CC[C@@]3(C)[C@@H](CC[C@@]34CCC(=O)O4)[C@H]12 [SPIRONOLACTONE],Not Active

# Target: Adenosine receptor A2a (Homo sapiens, UniProt P29274)
# Sequence (P29274 whole entry): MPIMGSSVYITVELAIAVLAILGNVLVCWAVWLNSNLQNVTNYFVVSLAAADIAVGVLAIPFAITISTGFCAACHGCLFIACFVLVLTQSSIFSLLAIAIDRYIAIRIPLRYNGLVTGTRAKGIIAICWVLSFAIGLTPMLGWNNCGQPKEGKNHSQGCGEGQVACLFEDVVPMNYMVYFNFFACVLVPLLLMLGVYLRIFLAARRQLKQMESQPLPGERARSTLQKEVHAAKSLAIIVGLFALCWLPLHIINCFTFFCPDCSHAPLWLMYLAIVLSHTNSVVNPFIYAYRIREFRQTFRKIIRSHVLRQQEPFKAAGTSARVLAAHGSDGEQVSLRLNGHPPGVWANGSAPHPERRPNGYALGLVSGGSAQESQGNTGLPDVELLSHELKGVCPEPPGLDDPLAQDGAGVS
# Assay: DRUGMATRIX: Adenosine A2A radioligand binding (ligand: […])
# Format: cell membranes, HEK293, Membrane
# Details: hek293; Not Active = under 50% inhibition at 10 µM
row,SMILES,IC50
1,Cc1ncc([N+](=O)[O-])n1CC(C)O (stereo unspecified) [SECNIDAZOLE],Not Active
2,CC1=C(/C=C/C(C)=C/C=C/C(C)=C\C(=O)O)C(C)(C)CCC1 [ISOTRETINOIN],Not Active
3,CC(=O)S[C@@H]1CC2=CC(=O)CC[C@]2(C)[C@H]2CC[C@@]3(C)[C@@H](CC[C@@]34CCC(=O)O4)[C@H]12 [SPIRONOLACTONE],Not Active

# Reference: ChEMBL document CHEMBL1909046, “DrugMatrix in vitro pharmacology data”
